The subject of the experiment is c1498 murine AML (Acute Myeloid Leukemia) cells. The experiment in a line: Survival of FACS-sorted phosphatidylserine-positive AML cells after cytarabine treatment. The class given is cell-based. The conditions noted are these: Mus musculus, 1 μM cytarabine for 24 hrs, live cell number estimated from growth rates. From the text:
FIG. 1A-FIG. 1C show the survival of phosphatidylserine-expressing AML cells. […] The rectangles indicate the sorted cells. […] About 1000 each of the sorted cells were placed into multi-well plates. When the cells reached sufficient numbers, they were counted at different time points to measure their growth rates. The growth rates were then used to estimate the initial live cell numbers. The following formula was used to calculate the minimal initial live cell numbers: Minimal initial cell number=Total cell population/[…] (days to reach the current cell number).
To determine whether cells expressing high-level of PS expression on the cell surface were destined to die, the viability of c1498 murine AML (Acute Myeloid Leukemia) cells treated with cytarabine (part of a classical chemotherapy regimen for human AML) was examined.
Specifically, whether PS-expressing acute myelocytic leukemia (AML) cells survived was examined. FACS was used to identify and sort c1498 cells treated with 1 μM cytarabine (for 24 hrs) and with high PS-expression. The sorted cells were then seeded into 6-well dishes and the ability to survive and proliferate was measured. FIG. 1A-FIG. 1B). […]

The structures appear in SMILES notation. Where two headings read alike, the source gives them in different places.

In the case of `Nc1ccn([C@@H]2O[C@H](CO)[C@@H](O)[C@@H]2O)c(=O)n1` [cytarabine], the viability at 1 µM is, setting by setting: (FACS-sorted PS+7AAD+ (late apoptotic) cells, read-out: proportion of cytarabine-treated PS+7AAD+ c1498 cells that remained viable and could proliferate) around 8%; (FACS-sorted PS+7AAD- (early apoptotic) cells, read-out: proportion of cytarabine-treated PS+7AAD- c1498 cells that remained viable and could proliferate) around 25%.

The record behind these values is patent publication US20250135002A1, “COMPOSITIONS FOR AND METHOD OF EFFECTING TUMOR CELL DEATH” (Duke University, priority 2022, published 2025).
